Patent US20040175401A1, “Enhanced parmacokinetic profile of hydrophobic substances” (priority 2001, published 2004)
Like-named read-outs stand apart in the source and are kept apart here. Marks after values point to notes of the source that are not given here.

Legend:
[1] = starred values; log P estimated using SRC program
[2] = n-octanol/water partition coefficient LogPoct calculated from solubility data; conditions: calculated as logPoct = (0.99 - logSw)/1.34
Excerpt: where logSw is the molar solubility and logPoct is the water-oil partition coefficient. Using this equation, values for logPoct can be calculated from solubility data.

[3] = molar aqueous solubility, log value; cited from earlier work

SMILES	LogSw [1]	LogPoct [2]	LogSw [3] [moles/L]
Cc1onc(-c2ccccc2)c1-c1ccc(S(N)(=O)=O)cc1 [Valdecoxib]	−2.59* moles/L		
CCC(=O)NS(=O)(=O)c1ccc(-c2c(-c3ccccc3)noc2C)cc1 [Parecoxib]	−3.16* moles/L		
CCC[C@@]1(CCc2ccccc2)CC(O)=C([C@H](CC)c2cccc(NS(=O)(=O)c3ccc(C(F)(F)F)cn3)c2)C(=O)O1 [N-(3{(1R)-1-[(6R)-4-hydroxy-2-oxo-6-phenethyl-6-propyl-5,6-dihydro-2H-pyran-3-yl]propyl}phenyl)-5-(trifluoromethyl)-2-pyridinesulfonamide]	−8.00* moles/L		
O=C1NC(=S)NC(=O)C12CCCCC2 [5,5-(CH2)5-2-thiobarbituric acid]		3.32	−3.46
C=C(C)C1CC=C(C)C(=O)C1 (stereo not shown) [Carvone]		1.99	−1.67
CC12CCC(C1)C(C)(C)C2O (stereo not shown) [fenchyl_alcohol]		2.43	−2.27
O=C1NC(=O)C2(CCCCCCCCCC2)C(=O)N1 [5,5-(CH2)10-barbituric acid]		4.16	−4.59
S=c1cc(-c2ccccc2)ss1 [5-phenyldithiolethione]		4.95	−5.64
C=CC(C)(O)CCC=C(C)C (stereo not shown) [linalool]		2.23	−2.00
CC1(C)C2CC3OC3(C)C1C2 (stereo not shown) [pinene_oxide]		2.67	−2.59
O=C1NC(=O)C2(CCCCCCCCCCC2)C(=O)N1 [5,5-(CH2)11-barbituric acid]		5.07	−5.80
